What was measured:
[1] = test system: monocrotaline-induced pulmonary hypertension model rats (MCT-PAH); assay: Monocrotaline-induced pulmonary hypertension model rats, oral (gavage) treatment for 21 days; format: in vivo, SD rats; conditions: 100 mg/kg
From the text: Monocrotaline (MCT) was subcutaneously injected to establish an animal model of pulmonary hypertension in SD rats. At the same time, compound 1 was given by gavage for treatment. The pulmonary artery hemodynamics and right heart hypertrophy index RVHI of the rates were detected to determine whether the oral administration of compound 1 has effects of improving Monocrotaline induces pulmonary hypertension.
(§1) SD rats (purchased from Shanghai Xipuer-Bikai Experimental Animal Co., Ltd.), male, weighing 180-200 g, were bred in an artificially controlled animal room with each 12 hours of light and darkness at a temperature of 20-25° C. and relative humidity of 50-60%, and allowed ad libitum to food and water. The rats were randomly divided into groups according to the experimental requirements, and kept separately in cages, with 3 to 4 rats per cage. All relevant operations of animal experiments are in compliance with the provisions of “Guidelines for the Management and Use of Laboratory Animals” of China.
During the experiment, SD rats were randomly divided into 4 groups: blank control group, pulmonary hypertension model group, Selexipag (1 mg/kg) treatment group and compound 1 (100 mg/kg) group with 6 rats in each group, and the concentration in brackets represents the administration concentration of the compound, in which Selexipag is a new oral long-acting prostacyclin receptor agonist discovered and synthesized by Japan New Drug Co., Ltd. On the first day of the experiment, normal saline was injected subcutaneously into the back of neck of rats in the blank control group, and monocrotaline (Chengdu Purifa Biotechnology Co., Ltd.) solution was injected in the rats in other groups at a dosage of 60 mg/kg. Both the positive drug, Selexipag and Compound 1 were administered by gavage. Selexipag and […] were dissolved in 0.5% CMC-Na solution. The rats were continuously administered for 21 days with a volume of […]. The rats in the control and model groups were given the corresponding volume of CMC-Na solution by gavage. Specific groupings can be found in Table 7.
After the administration, the pulmonary vascular hemodynamics and RVHI was determined according to the same experiment method as that in Example 1.

[2] = test system: hypoxic pulmonary hypertension model rats; assay: Hypoxic pulmonary hypertension model rats, oral (gavage) treatment for 28 days; format: in vivo, SD rats; conditions: hypoxic PAH rats, 200 mg/kg, po
Protocol: An animal model of pulmonary hypertension in SD rats was established in a hypoxic and low-pressure environment, and compound 1 was administered by gavage at the same time for treatment. The rat pulmonary artery hemodynamics and right heart hypertrophy index RVHI were measured to determine whether compound 1 has effects of improving hypoxic pulmonary hypertension.
as §1
The hypoxic PAH model was established by placing SD male rats in a fully-automatically regulated low-pressure hypoxic chamber (atmospheric pressure of about 50 kPa, oxygen concentration of 10%) for 8 hours a day for 28 days. The rats in the blank control group were kept in a normoxic environment.
The experimental rats of hypoxic PAH model were divided into 8 groups, namely blank control group, model group, Sidenafil (25 mg/kg) group, compound 1 (10 mg/kg) group, compound 1 (25 mg/kg) group, compound 1 (50 mg/kg) group, compound 1 (100 mg/kg) group, and compound 1 (200 mg/kg) group. The concentration in the parentheses of the group name represents the administration concentration of the compound or drug. In hypoxia-induced PAH experiments, Sidenafil is often used as a positive drug, which can reduce the pulmonary artery pressure in rats and reduce the right ventricular hypertrophy and vascular remodeling. In this experiment, 25 mg/kg of Sidenafil was used as the positive drug. Both the positive drugs Sidenafil and Compound 1 were dissolved in physiological saline and formulated into solutions of different concentrations according to different administration concentrations. The rats were continuously administered for 28 days with an administration volume of 5 ml/kg. Rats in the control and model groups were given the corresponding volume of physiological saline solution via gavage. The specific grouping can be found in Table 5.
After the administration was completed, the POWERLAB biological information acquisition and treatment system was started, and the right cardiac catheter filled with 0.2% heparin sodium (Beijing Solo Technology Co. Ltd.) in normal saline was connected to the pressure transducer and then zero-calibrationed for use. After 20% urethane (Shanghai Yuanye Biotechnology Co., Ltd.) solution was injected into the abdominal cavity of the rats for anesthesia, the right neck hair was shaved and the right jugular vein was isolated and exposed. […] After the typical right ventricular waveform appeared and stabilized for a while, the waveform was recorded, and then the pressure value was read by Powerlab biological information acquisition and processing system (ADInstruments).
After the pressure was measured, the catheter was taken out, and the rat was dissected immediately to take out the heart and lung tissues. The right ventricle (RV) and the left ventricle and interventricular septum (LV+S) were separated and weighed, and the right heart hypertrophy index RVHI=RV/(LV+S) was calculated. The lung lobe tissue from the right lower part of the lung was separated, soaked in 4% paraformaldehyde (Sigma) for about 1 week to prepare a paraffin section with a thickness of 3 μm, and then conducted to hematoxylin-eosin staining (Wuhan Guge Biotechnology Co., Ltd.). […]

[3] = test system: spontaneously hypertensive rats (SHR); assay: Antihypertensive activity test: blood pressure and heart rate of spontaneously hypertensive rats (SHR); format: in vivo, rat; conditions: 200 mg/kg; for SHR blood pressure (SBP), time after administration 1 h / SHR blood pressure (SBP), time after administration 2 h / SHR blood pressure (SBP), time after administration 3 h / SHR blood pressure (SBP), time after administration 4 h / SHR blood pressure (SBP), time after administration 5 h / SHR blood pressure (SBP), time after administration 6 h: n = 8
Procedure, shortened: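 Spontaneously hypertensive rats received compound at 200 mg/kg. SBP and heart rate were measured before and after dosing. A drop in SBP of ≥20 mmHg from baseline counted as effective, and heart-rate changes were tested by paired t-test (P<0.05).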

[4] = test system: monocrotaline-induced pulmonary hypertension model rats (MCT-PAH); assay: Monocrotaline-induced pulmonary hypertension model rats, aerosol inhalation treatment; format: in vivo, SD rats; conditions: 30 mg/kg, inh, 28 days
Protocol: A pulmonary hypertension animal model of SD rats was established by subcutaneous injection of monocrotaline (MCT). The compound 1 was administered by aerosol inhalation for treatment. The pulmonary artery hemodynamics and right heart hypertrophy index RVHI of rats were tested to determine whether compound 1 administered by aerosol inhalation has effects of improving monocrotaline-induced pulmonary hypertension.
as §1
In the second experiment, the rats were divided into 5 groups, namely the control group, model group, positive control Tyvaso (1.62 μg/kg) group, compound 1 (10 mg/kg) group and compound 1 (30 mg/kg) group. On the first day of the experiment, normal saline was injected subcutaneously into the back of the neck of the rats in the blank control group, and monocrotaline (Chengdu Purifa Biotechnology Co., Ltd.) solution was injected in the other groups at a dosage of 60 mg/kg. Compound 1 and Tyvaso were administered by aerosol inhalation, that is, the compound was firstly dissolved in physiological saline, and then the solution was prepared into an aerosol with a nebulizer to be inhaled into the mouth and nose of rats. The rats in the control group and the model group only inhaled an aerosol made of physiological saline. The rats were continuously administered for 28 days, and the concentration in the parentheses of the group name represents the administered concentration of the compound. Specific groupings can be found in Table 9. After the administration, the pulmonary vascular hemodynamics and RVHI were determined in the same way as the experiment method in Example 1.

Row | SMILES | 2 × MT/ED [1] | RVHI [1] | RVSP [1] [mmHg] | mPAP [1] [mmHg] | 2 × MT/ED [2] | RVHI [2] | RVSP [2] [mmHg] | mPAP [2] [mmHg] | SBP Difference before and after administration, 1 h [3] [mmHg] | SHR blood pressure (SBP), time after administration 1 h [3] [mmHg] | SBP Difference before and after administration, 2 h [3] [mmHg] | SHR blood pressure (SBP), time after administration 2 h [3] [mmHg] | SBP Difference before and after administration, 3 h [3] [mmHg] | SHR blood pressure (SBP), time after administration 3 h [3] [mmHg] | SBP Difference before and after administration, 4 h [3] [mmHg] | SHR blood pressure (SBP), time after administration 4 h [3] [mmHg] | SBP Difference before and after administration, 5 h [3] [mmHg] | SHR blood pressure (SBP), time after administration 5 h [3] [mmHg] | SBP Difference before and after administration, 6 h [3] [mmHg] | SHR blood pressure (SBP), time after administration 6 h [3] [mmHg] | further results
1 | COc1cccc(C(O)CO)c1 (stereo not shown) [Compound 8] | 0.31 ± 0.052 | 0.33 ± 0.037 | 45.97 ± 3.49 | 16.47 ± 3.07 | 0.277 ± 0.022 | 0.296 ± 0.027 | 62.50 ± 2.91 | 17.19 ± 3.65 | 6 | 188 ± 12.4 | 13 | 181 ± 12.7 | 18 | 176 ± 11.1 | 18 | 176 ± 10.3 | 14 | 180 ± 11.3 | 8 | 186 ± 10.4 | SBP Difference before and after administration, 0 h ([3]; 0 h): 0 mmHg; 2 × MT/ED [4]: 0.353 ± 0.043; RVHI [4]: 0.306 ± 0.027; RVSP [4]: 45.92 ± 3.47 mmHg; mPAP [4]: 14.16 ± 3.84 mmHg
2 | CCc1cccc(C(CO)OC2OC(CO)C(O)C(O)C2O)c1 (stereo not shown) [Compound 16] | 0.32 ± 0.066 | 0.320 ± 0.031 | 48.89 ± 6.64 | 16.74 ± 3.08 | 0.289 ± 0.030 | 0.365 ± 0.031 | 65.83 ± 3.26 | 18.60 ± 3.60 | 9 | 174 ± 10.6 | 11 | 172 ± 10.4 | 10 | 173 ± 9.90 | 15 | 168 ± 6.61 | 11 | 172 ± 7.25 | 9 | 174 ± 12.1 | 2 × MT/ED [4]: 0.357 ± 0.032; RVHI [4]: 0.290 ± 0.054; RVSP [4]: 41.44 ± 2.03 mmHg; mPAP [4]: 14.76 ± 1.98 mmHg
3 | CCc1cccc(C(COC(C)=O)OC(C)=O)c1 (stereo not shown) [Compound 30] | 0.31 ± 0.021 | 0.245 ± 0.032 | 44.38 ± 2.89 | 16.21 ± 1.29 | 0.287 ± 0.025 | 0.303 ± 0.0632 | 62.14 ± 3.35 | 16.03 ± 5.35 | 4 | 189 ± 7.54 | 5 | 188 ± 3.69 | 8 | 185 ± 10.11 | 20 | 183 ± 9.66 | 5 | 188 ± 14.9 | 5 | 188 ± 8.64 | 2 × MT/ED [4]: 0.402 ± 0.034; RVHI [4]: 0.273 ± 0.043; RVSP [4]: 46.04 ± 3.27 mmHg; mPAP [4]: 16.00 ± 3.44 mmHg
